Data on 1 molecule can be found in article PMC11371739, “Ginkgolic Acid as a carbapenem synergist against KPC-2 positive Klebsiella pneumoniae” (Frontiers in Microbiology, 2024).

The experiment concerns the target T1, KPC-2 (Klebsiella pneumoniae carbapenemase-2) (Klebsiella pneumoniae, UniProt Q9F663).
T1 construct: purified KPC-2 expressed in E. coli BL21(DE3) (pET28a-KPC-2)
Put plainly: nitrocefin hydrolysis inhibition assay with purified KPC-2; supported by CD, FTIR and site-directed mutagenesis. Type of experiment: biochemical.

The structures appear in SMILES notation.

T1 sequence (Q9F663 25-293 limits assumed): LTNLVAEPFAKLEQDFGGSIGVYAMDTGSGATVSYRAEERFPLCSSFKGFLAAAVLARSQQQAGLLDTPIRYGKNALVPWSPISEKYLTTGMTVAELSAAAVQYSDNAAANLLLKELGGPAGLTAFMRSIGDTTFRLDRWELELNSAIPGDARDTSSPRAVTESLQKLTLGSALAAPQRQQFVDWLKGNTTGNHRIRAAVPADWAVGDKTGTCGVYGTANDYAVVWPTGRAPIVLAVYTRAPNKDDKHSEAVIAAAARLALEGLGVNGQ

Turning to `CCCCCCCCCCCCCc1cccc(O)c1C(=O)O` [GA, Ginkgolic Acid (C13:0)], the IC50 was 14.8 µM.
